Experimental data taken from PubChem BioAssay AID248 (DTP/NCI, 2004).
Several values for one entry are separate records, joined by “and”; a condition that tells them apart may be missing. Equal entries are not always repeated. Inconclusive results and toxic doses are left out. Rule as the data show it: active = T/C of 150% or more; inactive = T/C below 125%. Peptide text beside a SMILES is read from it. * marks the point of attachment. Cbz = O=C(OCc1ccccc1)*

System: L1210 leukemia ip in BDF1 mice, survival T/C
Assay: NCI In Vivo Anticancer Drug Screen. Data for tumor model L1210 Leukemia (intraperitoneal) in B6D2F1 (BDF1) mice
Conditions: endpoint: mean survival time, higher = longer survival
In short: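 Transplanted-tumor mice were given test agent; controls received vehicle only. Survival readings from the two groups were divided (treated over control).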

[1] = dose: 100.0 mg/kg/injection, schedule: Q04DX003 (ip), vehicle: saline with Tween-80
[2] = dose: 200.0 mg/kg/injection, schedule: Q04DX003 (ip), vehicle: saline with Tween-80
[3] = dose: 400.0 mg/kg/injection, schedule: Q04DX003 (ip), vehicle: saline with Tween-80
[4] = dose: 100.0 mg/kg/injection, schedule: Q01DX009 (ip), vehicle: saline with Tween-80
[5] = dose: 100.0 mg/kg/injection, schedule: Q04DX003 (ip), vehicle: Klucel (hydroxypropylcellulose) (HPC)
[6] = dose: 200.0 mg/kg/injection, schedule: Q01DX009 (ip), vehicle: saline with Tween-80
[7] = dose: 200.0 mg/kg/injection, schedule: Q04DX003 (ip), vehicle: Klucel (hydroxypropylcellulose) (HPC)
[8] = dose: 400.0 mg/kg/injection, schedule: Q04DX003 (ip), vehicle: Klucel (hydroxypropylcellulose) (HPC)
[9] = dose: 200.0 mg/kg/injection, schedule: Q01DX009 (ip), vehicle: Klucel (hydroxypropylcellulose) (HPC)
[10] = dose: 400.0 mg/kg/injection, schedule: Q01DX009 (ip), vehicle: Klucel (hydroxypropylcellulose) (HPC)
[11] = dose: 100.0 mg/kg/injection, schedule: Q04DX002 (ip), vehicle: Klucel (hydroxypropylcellulose) (HPC)
[12] = dose: 200.0 mg/kg/injection, schedule: Q04DX002 (ip), vehicle: Klucel (hydroxypropylcellulose) (HPC)
[13] = dose: 400.0 mg/kg/injection, schedule: Q04DX002 (ip), vehicle: Klucel (hydroxypropylcellulose) (HPC)
[14] = dose: 50.0 mg/kg/injection, schedule: Q01DX009 (ip), vehicle: Klucel (hydroxypropylcellulose) (HPC)
[15] = dose: 100.0 mg/kg/injection, schedule: Q01DX009 (ip), vehicle: Klucel (hydroxypropylcellulose) (HPC)
[16] = dose: 100.0 mg/kg/injection, schedule: Q01DX001 (ip), vehicle: saline
[17] = dose: 200.0 mg/kg/injection, schedule: Q01DX001 (ip), vehicle: saline
[18] = dose: 400.0 mg/kg/injection, schedule: Q01DX001 (ip), vehicle: saline
[19] = dose: 50.0 mg/kg/injection, schedule: Q01DX001 (ip), vehicle: carboxymethylcellulose (CMC)
[20] = dose: 100.0 mg/kg/injection, schedule: Q01DX001 (ip), vehicle: carboxymethylcellulose (CMC)
[21] = dose: 200.0 mg/kg/injection, schedule: Q01DX001 (ip), vehicle: carboxymethylcellulose (CMC)
[22] = dose: 400.0 mg/kg/injection, schedule: Q01DX001 (ip), vehicle: carboxymethylcellulose (CMC)

Measured: T/C

CC1=NN(c2cccc(S(=O)(=O)O)c2)C(=O)C1
inactive: [1] 105 % of control | [2] 101 % of control | [3] 89 % of control

O=C1c2ccccc2CC1(Br)C(Br)c1ccccc1 (configuration not stated)
inactive: dose: 100.0 mg/kg/injection, schedule: Q01DX009 (ip), vehicle: saline sonified 99 % of control | [4] 96 % of control | [5] 104 % of control | [1] 107 % of control | dose: 200.0 mg/kg/injection, schedule: Q01DX009 (ip), vehicle: saline sonified 95 % of control | [6] 91 % of control | [7] 101 % of control | [2] 103 % of control | dose: 400.0 mg/kg/injection, schedule: Q01DX009 (ip), vehicle: saline sonified 94 % of control | dose: 400.0 mg/kg/injection, schedule: Q01DX009 (ip), vehicle: saline with Tween-80 89 % of control | [8] 98 % of control | [3] 104 % of control

O=C(Nc1c(Oc2ccc(Cl)c(Cl)c2)ccc(Cl)c1S(=O)(=O)O)Nc1c(Oc2ccc(Cl)c(Cl)c2)ccc(Cl)c1S(=O)(=O)O
inactive: dose: 75.0 mg/kg/injection, schedule: Q01DX001 (ip), vehicle: saline 101 % of control | dose: 150.0 mg/kg/injection, schedule: Q01DX001 (ip), vehicle: saline 99 % of control | dose: 300.0 mg/kg/injection, schedule: Q01DX001 (ip), vehicle: saline 96 % of control

CCC(C(C)C)C(Br)C(Br)C(C)C1CCC2C3CC=C4CC(OC(C)=O)CCC4(C)C3CCC12C (configuration not stated)
inactive: [9] 91 % of control | [10] 96 % of control

CSc1nc(C(Cl)Cl)cnc1Cl
inactive: [11] 102 % of control | [12] 91 % of control | [13] 105 % of control

Cl/N=C(/c1ccccc1)c1ccc(Cl)cc1
inactive: [5] 105 % of control | [7] 102 % of control | [8] 104 % of control

O=C(O)C(Br)C(Br)C(=O)Nc1cccc(C(F)(F)F)c1 (configuration not stated)
inactive: dose: 25.0 mg/kg/injection, schedule: Q01DX009 (ip), vehicle: Klucel (hydroxypropylcellulose) (HPC) 96 % of control | [14] 96 % of control | [15] 103 % of control | dose: 100.0 mg/kg/injection, schedule: Q01DX009 (ip), vehicle: other 96 % of control

C#CCOCCC(C(=O)OCC)C(=O)OCC
inactive: dose: 100.0 mg/kg/injection, schedule: Q01DX009 (ip), vehicle: saline 96 % of control | dose: 200.0 mg/kg/injection, schedule: Q01DX009 (ip), vehicle: saline 91 % of control | dose: 400.0 mg/kg/injection, schedule: Q01DX009 (ip), vehicle: saline 102 % of control

CCCCCCCCCCCCCCS(=O)(=O)CCCl
inactive: dose: 100.0 mg/kg/injection, schedule: Q04DX003 (ip), vehicle: carboxymethylcellulose (CMC) 98 % of control | dose: 200.0 mg/kg/injection, schedule: Q04DX003 (ip), vehicle: carboxymethylcellulose (CMC) 94 % of control | dose: 400.0 mg/kg/injection, schedule: Q04DX003 (ip), vehicle: carboxymethylcellulose (CMC) 94 % of control

Cc1ccc(C)c(NC(=O)Oc2cc(C)c(Cl)cc2C(C)C)c1
inactive: [15] 92 % of control and 102 % of control | [5] 103 % of control | [9] 100 % of control and 87 % of control | [7] 115 % of control | [10] 102 % of control and 90 % of control | [8] 97 % of control

COc1cc(O)c2ccccc2c1OC(C)=O
inactive: [14] 101 % of control | [15] 90 % of control | [9] 93 % of control

N#Cc1ccccc1OCCCOc1ccccc1C#N
inactive: dose: 75.0 mg/kg/injection, schedule: Q01DX009 (ip), vehicle: Klucel (hydroxypropylcellulose) (HPC) 100 % of control | dose: 150.0 mg/kg/injection, schedule: Q01DX009 (ip), vehicle: Klucel (hydroxypropylcellulose) (HPC) 99 % of control | dose: 300.0 mg/kg/injection, schedule: Q01DX009 (ip), vehicle: Klucel (hydroxypropylcellulose) (HPC) 106 % of control

O=Nn1cc(-c2cc3ccccc3n2N=O)c2ccccc21
inactive: dose: 50.0 mg/kg/injection, schedule: Q01DX001 (ip), vehicle: saline 102 % of control | [16] 93 % of control | [17] 96 % of control | [18] 96 % of control

CC(=O)Nc1ccc(/C=N/NC(=O)CNC(=O)Nc2cccc(Cl)c2Cl)cc1
inactive: dose: 50.0 mg/kg/injection, schedule: Q01DX009 (ip), vehicle: saline with Tween-80 121 % of control | [4] 90 % of control | [6] 88 % of control

OC(c1ccc(Br)cc1)C(O)c1ccc(Br)cc1 (configuration not stated)
inactive: dose: 50.0 mg/kg/injection, schedule: Q04DX002 (ip), vehicle: saline with Tween-80 104 % of control | dose: 100.0 mg/kg/injection, schedule: Q04DX002 (ip), vehicle: saline with Tween-80 104 % of control | dose: 200.0 mg/kg/injection, schedule: Q04DX002 (ip), vehicle: saline with Tween-80 97 % of control

COC(=O)C(CC(C)C)NC(=O)C(CC(N)=O)NC(=O)OCc1ccccc1 (stereo not drawn) (Cbz-Asn-Leu-OMe; configuration not given here)
inactive: [16] 96 % of control | [17] 93 % of control | [18] 98 % of control

OCC1C(CO)C2(Cl)C(Cl)=C(Cl)C1(Cl)C2(Cl)Cl (configuration not stated)
inactive: [15] 90 % of control | dose: 100.0 mg/kg/injection, schedule: Q04DX003 (ip), vehicle: saline 94 % of control | [9] 100 % of control | dose: 200.0 mg/kg/injection, schedule: Q04DX003 (ip), vehicle: saline 101 % of control | [10] 111 % of control | dose: 400.0 mg/kg/injection, schedule: Q04DX003 (ip), vehicle: saline 99 % of control

Cc1ccc(N=Cc2cc(Cl)cc(Cl)c2O)cc1.Cc1ccc(N=Cc2cc(Cl)cc(Cl)c2O)cc1.[Co]
inactive: [1] 104 % of control | [2] 100 % of control | [3] 114 % of control

c1ccc(-c2cc(-c3ccccc3)[o+]c(-c3ccccc3)c2)cc1
inactive: [11] 93 % of control | [12] 96 % of control | [13] 90 % of control

CCOC(=O)NN(C)c1c(C)cccc1C
inactive: dose: 50.0 mg/kg/injection, schedule: Q01DX001 (ip), vehicle: Klucel (hydroxypropylcellulose) (HPC) 96 % of control | dose: 100.0 mg/kg/injection, schedule: Q01DX001 (ip), vehicle: Klucel (hydroxypropylcellulose) (HPC) 106 % of control | dose: 200.0 mg/kg/injection, schedule: Q01DX001 (ip), vehicle: Klucel (hydroxypropylcellulose) (HPC) 104 % of control

COc1ccc(C(=O)CCC(=O)O)cc1OC
inactive: [19] 97 % of control | [20] 100 % of control | [21] 92 % of control | [22] 92 % of control

O=C(Nc1cccc(C(F)(F)F)c1)Nc1ccc(Cl)c(Cl)c1
inactive: [19] 96 % of control | [20] 102 % of control | [21] 98 % of control | [22] 113 % of control

O=C(O)C(CSSCC(NS(=O)(=O)Cc1ccccc1)C(=O)O)NS(=O)(=O)Cc1ccccc1 (configuration not stated)
inactive: dose: 100.0 mg/kg/injection, schedule: Q04DX003 (ip), vehicle: other 97 % of control | dose: 200.0 mg/kg/injection, schedule: Q04DX003 (ip), vehicle: other 92 % of control | dose: 400.0 mg/kg/injection, schedule: Q04DX003 (ip), vehicle: other 93 % of control
